Measured values taken from patent publication US20090169497A1, “Treatment and Prevention of Skin Injury Due to Exposure to Ultraviolet Light” (priority 2007, published 2009).
Entries after “also recorded” stand apart in the source; their conditions may differ.

Legend:
[1] = test system: p53 (Ser15, Ser20); experiment: UVB-induced phosphorylation of p53 at Ser15 and Ser20 in skin (immunoblot); type: in vivo, mice; conditions: 20 mg/kg s.c. pre-treatment
Text: (§1) Animals and treatment for Example 2. Female SKH-1 hairless mice (6 weeks old) were purchased from Charles River Laboratories (Wilmington, Mass.). After their arrival, animals were housed at UCDHSC vivarium under specific pathogen-free conditions according to the National Institutes of Health Animal Care Guidelines under an Institutional protocol reviewed and approved by the Institutional Animal Care and Use Committee (IACUC). Animals were allowed to acclimatize for a week prior to the experiment. Animals were fed Purina chow diet and water ad libitum. Throughout the experimental protocol, the mice were maintained at standard conditions; temperature 24±2° C., relative humidity 50±10%, and 12 hour room light/12 hour dark cycle. Mice were divided into four groups. […] The remaining animals were divided into UV exposure alone (Group 2), UV+saline treatment (Group 3) and UV+bucillamine treatment (Group 4). Mice in groups 2-4 were exposed to two doses of 230 mJ/cm^2 UVB, 24 hours apart. Two hours prior to each UVB exposure, mice in groups 3 and 4 were treated with normal saline (Group 3) or bucillamine at a concentration of 20 mg/kg of body weight (Group 4) subcutaneously. […]
(§2) SDS-PAGE and immunoblot analysis. Proteins were analyzed by SDS-PAGE (12% gels) followed by transfer to a polyvinylidene difluoride membrane (0.4 μM) in 25 mM Tris, 192 mM glycine, and 20% methanol at 110 V for 1 hour. […]

[2] = test system: SKH-1 mice; experiment: Preliminary experiment assessing adverse effects of bucillamine alone in SKH-1 mice; type: in vivo; conditions: 20 mg/kg s.c., two doses 24 hours apart, no UVB
Procedure: In order to assess any adverse effects of bucillamine and UV exposure separately, a preliminary experiment was carried out in which SKH-1 mice were either treated with bucillamine (20 mg/kg s.c.) or UVB (230 mJ/cm^2) irradiation. Bucillamine can, for example, be administered intravenously, subcutaneously, intramuscularly or orally. Subcutaneous administration was used because it is a relatively easy route and the least likely to injure the animal during administration. The selection of bucillamine dose and UVB dose was based on previously published studies (13, 19, 21, 22). High dose of UVB (230 mJ/cm^2) was selected to investigate bucillamine effect on acute photodamage. Each group of animals received two doses of bucillamine or UVB, 24 hours apart. […] UVB exposure caused edema, erythema and thickening of the exposed skin.

[3] = test system: p53; experiment: UVB-mediated total p53 induction in skin lysates (immunoblot); type: in vivo, mice; conditions: 20 mg/kg s.c. pre-treatment
Text: as §1, §2

[4] = test system: PUMA; experiment: UVB-induced activation of PUMA, downstream target of p53, in skin; type: in vivo, mice; conditions: 12 and 24 hours after the last UVB exposure; 20 mg/kg s.c. pre-treatment
Text: as §1, §2

[5] = test system: UV-exposed skin of SKH-1 hairless mice; experiment: Histology of UVB-exposed dorsal skin after bucillamine pre-treatment; type: in vivo
Text: Animals and treatment for Example 2. Female SKH-1 hairless mice (6 weeks old) were purchased from Charles River Laboratories (Wilmington, Mass.). After their arrival, animals were housed at UCDHSC vivarium under specific pathogen-free conditions according to the National Institutes of Health Animal Care Guidelines under an Institutional protocol reviewed and approved by the Institutional Animal Care and Use Committee (IACUC). Animals were allowed to acclimatize for a week prior to the experiment. Animals were fed Purina chow diet and water ad libitum. Throughout the experimental protocol, the mice were maintained at standard conditions; temperature 24±2° C., relative humidity 50±10%, and 12 hour room light/12 hour dark cycle. Mice were divided into four groups. […] The remaining animals were divided into UV exposure alone (Group 2), UV+saline treatment (Group 3) and UV+bucillamine treatment (Group 4). Mice in groups 2-4 were exposed to two doses of 230 mJ/cm^2 UVB, 24 hours apart. Two hours prior to each UVB exposure, mice in groups 3 and 4 were treated with normal saline (Group 3) or bucillamine at a concentration of 20 mg/kg of body weight (Group 4) subcutaneously. Animals were sacrificed after the last UVB exposure at various time points, and the dorsal skin was surgically removed and used for further analysis.
UVB Source. We employed four FS-40-T-12-UVB sunlamps with UVB spectra 305 Dosimeter (Daavlin, Bryan, Ohio), which emitted about 80% radiation in the range of 280-340 nm with a peak emission at 314 nm as monitored with a SEL 240 photodetector, 103 filter and 1008 diffuser attached to an IL1400A NIST Traceable Radiometer/Photometer from International Light (Newburyport, Mass.). The UVB irradiation doses were also calibrated using an IL1400A radiometer.
Histopathology. Skin samples were fixed in 10% formalin and embedded in paraffin. Vertical sections (4 μm thickness) were cut and mounted on a glass slide, and stained with hematoxylin and eosin followed by microscopic evaluation of the slides. SKH-1 hairless mice were unexposed or irradiated with UVB (230 mJ/cm^2) twice, 24 hours apart. Mice irradiated with UVB were untreated or pre-treated with bucillamine or saline. Skin samples were collected at 6 hours and 24 hours after the last UVB exposure, and processed for histopathological analysis.

[6] = test system: p53; experiment: Immunohistochemical analysis of nuclear p53 staining in epidermal keratinocytes; type: in vivo, mice; conditions: 24 hours after the last UVB exposure; 20 mg/kg s.c. pre-treatment
Text: Animals and treatment for Example 2. Female SKH-1 hairless mice (6 weeks old) were purchased from Charles River Laboratories (Wilmington, Mass.). After their arrival, animals were housed at […] vivarium under specific pathogen-free conditions according to the National Institutes of Health Animal Care Guidelines under an Institutional protocol reviewed and approved by the Institutional Animal Care and Use Committee (IACUC). Animals were allowed to acclimatize for a week prior to the experiment. Animals were fed Purina chow diet and water ad libitum. Throughout the experimental protocol, the mice were maintained at standard conditions; temperature 24±2° C., relative humidity 50±10%, and 12 hour room light/12 hour dark cycle. Mice were divided into four groups. […] The remaining animals were divided into UV exposure alone (Group 2), UV+saline treatment (Group 3) and UV+bucillamine treatment (Group 4). Mice in groups 2-4 were exposed to two doses of 230 mJ/cm^2 UVB, 24 hours apart. Two hours prior to each UVB exposure, mice in groups 3 and 4 were treated with normal saline (Group 3) or bucillamine at a concentration of 20 mg/kg of body weight (Group 4) subcutaneously. […] All samples were coded and evaluated by at least two investigators in a blinded manner. […]

[7] = test system: ubiquitin proteasomal pathway (UPP) in 8B20 mouse melanoma cells; experiment: Ubiquitin immunoblot controls for UPP inhibition in 8B20 cells; type: cell-based; conditions: 50 μM, negative control
Procedure: As a positive control of UPP inhibition, we used 8B20 mouse melanoma cells treated with UPP inhibitors MG132 (10 μM) and Lactacystin (10 μM), and as a negative control we used 8B20 cells treated with etoposide (50 μM), a DNA damaging agent.
SDS-PAGE and immunoblot analysis. Proteins were analyzed by SDS-PAGE (12% gels) followed by transfer to a polyvinylidene difluoride membrane (0.4 μM) in 25 mM Tris, 192 mM glycine, and 20% methanol at 110 V for 1 hour. Membranes were blocked overnight in 10 mM Tris-HCl, pH 8.0, 125 mM NaCl, and 0.2% (v/v) Tween 20 containing 5% (w/v) nonfat dry milk (TBST-M5). Immunoblot analysis of the total protein bands were visualized using enhanced chemiluminescence as described by the manufacturer (Pierce Biotechnology, Inc., Rockford, Ill.). Immunoblots were subsequently stripped of antibodies by incubating for 15-20 minutes at 37° C. with Restore Western Stripping Buffer (Pierce Biotechnology, Inc., Rockford, Ill.) and re-probed with β-actin antibody to confirm protein loading. Densitometric analysis of the membranes was performed using GelDoc 200 (Bio-Rad Laboratories, Hercules, Calif.).

[8] = 12 and 24 hours after the last UVB exposure
[9] = 6 hours after the last UVB exposure

| SMILES | phosphorylation of p53 at Ser15 and Ser20 [1, 8] | phosphorylation of p53 at Ser15 and Ser20 [1, 9] | adverse effects [2] | p53 level [3, 8] | induction of total p53 [3, 9] | activation of PUMA [4] | UVB-induced erythema of dorsal skin ([5]; 20 mg/kg s.c. 2 h before each of two 230 mJ/cm^2 UVB exposures) | UVB-induced inflammation ([5]; 12 and 24 hours after the last UVB exposure, pre-treatment) | epidermal necrosis (histology) ([5]; 6 hours after the last UVB exposure, 20 mg/kg s.c. pre-treatment) | UV-effects on inflammation (dermal edema, leukocyte infiltration, dilatation of blood vessels) ([5]; 24 hours after the last UVB exposure, 20 mg/kg s.c. pre-treatment) | nuclear p53 staining in epidermal keratinocytes [6] | ubiquitin reactive high molecular weight bands (polyubiquitinated species) [7] |
| --- | --- | --- | --- | --- | --- | --- | --- | --- | --- | --- | --- | --- |
| CC(C)(S)C(=O)N[C@@H](CS)C(=O)O [bucillamine, N-(2-mercapto-2-methylpropionyl)-L-cysteine] | further diminished the phosphorylation; also recorded: quick decrease | attenuated this effect | no adverse effects | further decreased | attenuated this effect | attenuated the activation of PUMA | attenuated the erythema | attenuated the inflammation | epidermal necrosis was less prominent | attenuated the UV-effects on inflammation | diminished this effect | – |
| COc1cc([C@@H]2c3cc4c(cc3[C@@H](O[C@@H]3O[C@@H]5CO[C@@H](C)O[C@H]5[C@H](O)[C@H]3O)[C@H]3COC(=O)[C@H]23)OCO4)cc(OC)c1O [etoposide] | – | – | – | – | – | – | – | – | – | – | – | no polyubiquitinated species |
